The results in this text go back to PMC6297231 (Nature Communications, 2018).

One experiment has as its system MOLM-13 leukemic cells. The experiment can be described thus: MOLM-13 disseminated AML model. Particulars: venetoclax 100 mg kg^−1 p.o. daily, AZD5991 60 mg kg^−1 i.v. weekly, after 10 days. Type of experiment: in vivo, mice. The source says:
MOLM-13: These studies complied with all relevant ethical regulations described in the guidelines established by GV-SOLAS Institutional Animal Care and Use Committee. Female CIEA-NOG mice were purchased from Taconic. Mice between 5 and 8 weeks old were tail vein injected with five million MOLM-13 cells. Treatment started 3 days after implantation. AZD5991, venetoclax, and vehicle were formulated and administered as mentioned above. Bone marrow and peripheral blood were collected 10 days post-treatment initiation, followed by red cell lysis (ACK lysis buffer), washes with FC buffer (PBS + 2% FCS) and cell staining with AquaZombie live/dead stain (cat#423102, Biolegend) containing antibodies against human CD45 (cat#564105, BDBiosciences) and human HLA-ABC (cat#561346, BDBiosciences) or isotype controls (mIgG1 cat#552834, BDBiosciences; mIgG1 cat#561504, BDBiosciences). Samples were washed with FC buffer and data acquired on an Attune NXT cytometer and analyzed using FlowJo software. Gating was performed on single/live/FCS vs. SSC/HLA-ABC vs. hCD45 double positive cells (Supplementary Figure 8).

The test system of another experiment is KMS12PE. The experiment can be described thus: Cell viability assay. The experiment is classed as cell-based. Particulars: Homo sapiens, KMS-12-PE, 24 h; KMS12PE (MM); read-out: AZD5991 24h GI50.
A further experiment has as its system CMK. Put plainly: Cell viability assay. The experiment is classed as cell-based. As to conditions: Homo sapiens, 24 h; CMK (AML); read-out: AZD5991 24h GI50.
The subject of another experiment is JVM2. The experiment can be described thus: Cell viability assay. Type of experiment: cell-based. Particulars: Homo sapiens, JVM-2, 24 h; JVM2 (NHL); read-out: AZD5991 24h GI50.
The next experiment concerns WSUDLCL2. The experiment can be described thus: Cell viability assay. The experiment is classed as cell-based. As to conditions: Homo sapiens, 24 h; WSUDLCL2 (NHL); read-out: AZD5991 24h GI50.
The next experiment concerns H1568. The experiment can be described thus: Cell viability assay. As to conditions: NCI-H1568, 24 h; H1568 (Lung); read-out: AZD5991 24h GI50. The experiment is classed as cell-based.
The next experiment has as its system H1703. Put plainly: Cell viability assay. Particulars: Homo sapiens, NCI-H1703, 24 h; H1703 (Lung); read-out: AZD5991 24h GI50. The experiment is classed as cell-based.
The next experiment deals with H196. The experiment can be described thus: Cell viability assay. The experiment is classed as cell-based. As to conditions: NCI-H196, 24 h; H196 (Lung); read-out: AZD5991 24h GI50.
A further experiment relates to LK2. The experiment can be described thus: Cell viability assay. The experiment is classed as cell-based. Particulars: Homo sapiens, LK-2, 24 h; LK2 (Lung); read-out: AZD5991 24h GI50.
The test system of the next experiment is Colo205. Put plainly: Cell viability assay. The experiment is classed as cell-based. As to conditions: Homo sapiens, COLO 205, 24 h; Colo205 (GI); read-out: AZD5991 24h GI50.
A further experiment relates to ME1. The experiment can be described thus: Caspase-3/7 activation assay. Type of experiment: cell-based. Particulars: ME-1, 6 h.
In experiment [1] the test system is Eμ-Myc lymphoma cells, control. The experiment can be described thus: cells. As to conditions: Mus musculus, 24 h, read-out: apoptosis induction EC50 control.
Text: (§1) The retroviral plasmids to express human Bcl-2 family members in murine Eμ-Myc lymphoma cells are MSCV-hMCL-1-GFP, MSCV-hBCL-2-GFP, MSCV-hBCL-XL-GFP, MSCV-hBFL-1/A1-GFP, and MSCV-hBCL-w-GFP. To produce viruses, constructs of interest were co-transfected into HEK293T cells with the plasmid encoding the packaging viruses (p-CL-AMPHO provided by Phillip Darcy from Peter MacCallum Cancer Center, Melbourne, Australia) using standard calcium phosphate transient transfection technique. The retroviruses were harvested, filtered and used to infect target cells following standard procedures.
(§2) Samples were then centrifuged, washed twice with PBS and analyzed by flow cytometry in a BD LSRFortessa. FACSDiva software was used for data collection and FlowJo software for data analysis.
The test system of experiment [2] is Eμ-Myc lymphoma cells stably expressing human Bcl-2. The experiment can be described thus: Apoptosis induction in Eμ-Myc lymphoma cells. Particulars: overexpression of Bcl-2, 24 h.
Text: as §1, §2

Read-outs that look alike come from different tables or passages of the source. Some results are limits rather than exact numbers.

Experimental for CMK: (§3) Cells were plated at 3000 cells/well in 384-well white plates in corresponding cell growth media. […] Caspase-3/7 activation was subsequently determined using a Caspase-Glo 3/7 Reagent (Promega) and viability was assayed using the CellTiter-Glo Reagent (Promega) as described in manufacturer’s instructions. Dose–response curves for caspase-3/7 activation and viability were plotted and analyzed (including EC50 and GI50 determination) using GraphPad Prism.
Experimental for Colo205: as §3
Experimental for H1568: as §3
Experimental for H1703: as §3
Experimental for H196: as §3
Experimental for JVM2: as §3
Experimental for KMS12PE: as §3
Experimental for LK2: as §3
Experimental for ME1: as §3
Experimental for WSUDLCL2: as §3

As a reminder, the GI50 is the concentration at which growth is held to half of that of the control. A word on the EC50: it is the concentration needed to bring the measured effect to its halfway point. In the case of `Cc1c2c(nn1C)CSCc1cc(n(C)n1)CSc1cc(c3ccccc3c1)OCCCc1c(C(=O)O)n(C)c3c-2c(Cl)ccc13` (atropisomer, axis not shown; (Ra)) [(Ra)-7], the “percentage of HLA-ABC+ hCD45+ leukemic cells in peripheral blood vs. vehicle” value in the experiment with MOLM-13 leukemic cells is recorded as “significantly reduced”. Also, the “percentage of leukemic cells in bone marrow” value with MOLM-13 leukemic cells is given as “reduced”. Further, the concentration for 50% growth inhibition (GI50) in the experiment with KMS12PE is 0.329 µM; in the experiment on CMK it was > 30 µM; with JVM2, 0.547 µM; with WSUDLCL2, 0.109 µM; with H1568 it was 0.272 µM; with H1703, 0.346 µM. Moreover, the values for the GI50 in the experiment with H196, in the experiment with LK2 and with Colo205 were > 30 µM, > 30 µM and 20.5 µM, respectively. Besides, the EC50 is > 0.333 µM in the experiment on ME1 (read-out: 6h caspase EC50, ME1, single agent); 0.326 µM in the experiment with ME1 (read-out: AZD5991 6h EC50, ME1 (AML), caspase 3/7 activation); 1.07 µM in [1]. Also, the apoptosis-inducing activity entry in experiment [2] is recorded as “blocked”.
